# In PubChem BioAssay AID488808 (NMMLSC, 2010):
# Activity calls are given as the source filed them.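 The calls were made as follows: active = EC50 at or below 33 microM; inactive = the rest.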
# Tested on: S. cerevisiae RPL19A-GFP strain, flow cytometry fluorescence, 3 h
# Assay: yeast TOR reporter RPL19A-GFP, SAR compounds – cell-based, S. cerevisiae, flow cytometry, KU SAR compounds, SAR follow-up (AID 488808)
row,Structure (SMILES),EC50
1,CC1=NN(c2ccccc2)C(=O)C1C(c1ccccc1[N+](=O)[O-])C(C#N)C#N (configuration not stated),3.65 µM
2,COc1ccc([N+](=O)[O-])c(S(=O)(=O)c2ccc(Cl)cc2)n1,4.49 µM
3,O=C(Oc1ccnc2cc(Cl)ccc12)N1CCCCCC1,16.7 µM
4,Cn1ncc(S(=O)(=O)Cc2ccccc2)c(Cl)c1=O,2.73 µM
5,CSC1=NS(=O)(=O)c2c(C)nn(C)c2S1,175 µM (inactive)
6,CCN(CC)C(=O)Oc1ccnc2cc(Cl)ccc12,119 µM (inactive)
7,CC(C)(C)n1nc(-c2ccc(F)cc2)c2c(N)ncnc21,1.01 µM
8,Cc1ccc2nc(Cl)c3nnnn3c2c1,2.11 µM
9,COc1ccc([N+](=O)[O-])c(S(=O)(=O)c2ccccc2)n1,35.4 µM (inactive)
10,Cc1ccc(NC(=O)c2ccc(Cl)c(N3C(=O)C=CC3=O)c2)cc1,3.03 µM
11,O=C(Oc1c(Cl)cc(Cl)c2cccnc12)c1cccc([N+](=O)[O-])c1,59.9 µM (inactive)
12,Nc1cc(Oc2cccc(Cl)c2)nc(NCc2ccccc2)n1,252 µM (inactive)
13,CCc1ccc(OCC(=O)NNC(=S)NC(=O)C2CC2)c(Br)c1,2.74 µM
14,Cc1nn2c(-c3ccncc3)nnc2c2ccccc12,4.6 µM
15,CC(C)(C)C(=O)C(Cl)C(=O)Nc1ccccc1 (configuration not stated),4.18 µM
16,CC(C)(C)C(=O)NC(=S)NNC(=O)c1ccc(-c2ccccc2)cc1,30.2 µM
17,CC(C)(C)c1ccc(NC(=O)COC(=O)c2ccc([N+](=O)[O-])s2)cc1,2.02 µM
18,CC(=O)Nc1ncnc2c1c(-c1ccc(Cl)cc1)nn2C(C)(C)C,11.5 µM
19,CCC(C)Nc1nc(N)c([N+](=O)[O-])c(Nc2cccc(F)c2)n1 (configuration not stated),50 µM (inactive)

row,Structure (SMILES),EC50
1,O=S(=O)(CCN(CCS(=O)(=O)C(F)(F)F)CC1CCCO1)C(F)(F)F (configuration not stated),21.7 µM
2,CSc1nnc2c3cc(F)ccc3n(C)c2n1,1.14 µM
3,COc1ccc(C(=O)NC(=S)NNC(=O)c2cnccn2)cc1,0.71 µM
4,CCOC(=O)c1c(C)oc2c1c(C(c1cccnc1)N1CCOCC1)c(O)c1ccccc12 (configuration not stated),2.78 µM
5,Cc1ccc(S(=O)(=O)c2ncccc2[N+](=O)[O-])cc1,68.6 µM (inactive)
6,O=[N+]([O-])c1cc(S(=O)(=O)C(F)(F)F)ccc1Sc1nc2ccccc2s1,17.3 µM
7,Cc1ccc(NC(=O)c2cc(N3C(=O)C=CC3=O)ccc2N2CCOCC2)cc1Cl,0.78 µM
8,O=C(OCn1ncc(Br)c(Br)c1=O)c1ccc(F)cc1,4.53 µM
9,O=[N+]([O-])c1ccc(S(=O)(=O)c2cccc(C(F)(F)F)c2)nc1,1.37 µM
10,Cc1ccc(S(=O)(=O)c2ccc([N+](=O)[O-])cn2)cc1,3.77 µM
11,C[C@@H]1C[C@@H]([C@H](O)CC2CC(=O)NC(=O)C2)C(=O)[C@@H](C)C1,0.87 µM
12,O=C(OCn1ncc(Br)c(Br)c1=O)c1c(F)cccc1F,3.55 µM
13,O=[N+]([O-])c1ccc(O)c2ncccc12,25.4 µM
14,C[C@H]1C[C@@H](C)C(=O)[C@@H]([C@H](O)CC2CC(=O)NC(=O)C2)C1,0.42 µM
15,COc1ccc(/C=C/C(=O)NC(=S)NNC(=O)c2cnccn2)cc1,11.4 µM
16,COC(=O)CCS(=O)(=O)c1nc(-c2ccccc2)cc(C(F)(F)F)n1,66.5 µM (inactive)
17,CC(C)(C)n1nc(-c2ccc(Cl)cc2)c2c(N)ncnc21,0.42 µM
18,CNc1nc(N)c([N+](=O)[O-])c(Nc2cc(OC)ccc2OC)n1,3.04 µM
19,Nc1cc(Nc2cccc(F)c2)nc(NCc2ccccc2)n1,292 µM (inactive)

row,Structure (SMILES),EC50
1,O=[N+]([O-])c1cc(Cl)c2cccnc2c1O,27.2 µM
2,CC(Oc1ccc(Cl)cc1)C(=O)NNC(=S)NC(=O)c1ccco1 (configuration not stated),3.54 µM
3,Clc1ccc(N=c2ssnc2Cl)cc1,2.03 µM
4,O=c1cc(CSc2ccc(Cl)cc2)nc(-c2ccccn2)[nH]1,1.27 µM
5,CCOC(=O)CCS(=O)(=O)c1nc(-c2ccccc2)cc(C(F)(F)F)n1,47.9 µM (inactive)
6,Cc1ccc(-c2nn(C(C)(C)C)c3ncnc(N)c23)cc1,1.19 µM
7,CNc1nc(N)c([N+](=O)[O-])c(Nc2cccc(F)c2)n1,5.19 µM
8,c1ccc(-c2cccc(-c3ccccn3)n2)nc1,49.9 µM (inactive)
9,CCOC(=O)CS(=O)(=O)c1nc(-c2ccccc2)cc(C(F)(F)F)n1,30.2 µM
10,Cc1cc(C(=O)COC(=O)c2ccc[nH]c2=O)c(C)n1-c1ccccc1F,3.28 µM
11,C/C(=N\NC(=O)c1ccc(C(C)(C)C)cc1)c1ccccn1,293 µM (inactive)
12,Cc1ccc(C(=O)NNC(=S)NC(=O)COc2ccccc2)cc1,52.7 µM (inactive)
13,CN(C)CCCNc1nc(N)c([N+](=O)[O-])c(Nc2cccc(F)c2)n1,106 µM (inactive)
14,O=C(NC(=S)NNC(=O)c1cnccn1)c1ccc(F)cc1,3.66 µM
15,O=C(OCC(=O)N1CCN(C(=O)c2ccco2)CC1)c1cc(-c2cccc(Br)c2)nc2ccccc12,8.08 µM
16,Cc1cc(C(=O)Nc2nc(-c3ccccn3)cs2)ccc1[N+](=O)[O-],85.3 µM (inactive)
17,CCOC(=O)CSC1=NC(=O)/C(=C\c2ccc(Cl)cc2)S1,16 µM
18,O=C(OCC(=O)N1CCN(C(=O)c2ccco2)CC1)c1cc(-c2ccc(F)cc2)nc2ccccc12,3.01 µM
19,CN1CCN(C(=O)c2cc(COc3c(F)cccc3F)on2)CC1c1ccccc1 (configuration not stated),58.4 µM (inactive)
